From patent US20250186321A1, “FORMULATION USING AMINO ACID AND CARBOXYLIC ACID, ORGANIC SALT, AND COMPOSITION COMPRISING SAME AND USE THEREOF” (MIYOSHI OIL & FAT CO., LTD., priority 2021, published 2025)

Key:
[1] = Appearance of formulation (state at 25° C.); format: physicochemical
Experimental: Formulations 1 to 427 shown in Tables 1A to 1D were prepared by the above-described method using the components (A) and (B) at the compounding molar ratios shown in the tables, and their states at 25° C. were observed.

[2] = Water retention evaluation (moisture reduction rate); format: physicochemical; settings: for Moisture eduction rate / Moisture content before test (A): 80 wt. % aqueous solution; for Moisture eduction rate: 24 hours at 35° C. and 25% RH, calculated from A and B; for Moisture content before test (A): Karl Fischer; for Presence or absence of hydrates: left until the moisture content remained unchanged, based on final moisture content; for n-hydrate: number of hydrated water based on final moisture content
Experimental: 80 wt. % aqueous solutions of the formulations (organic salts) of the working examples 428 to 459 and comparative examples 1 to 5 in Tables 2A and 2B were prepared, and the water contents were measured using a Karl Fischer moisture meter (CA-200 manufactured by Mitsubishi Chemical Analytech Co., Ltd.). It was confirmed that the water contents of them were 20.0 wt. % (moisture content before test: A). Each of the 1.0 g samples was added to a screw tube, and left uncovered to stand still for 24 hours in a constant temperature and humidity bath (KCL-2000W manufactured by Tokyo Rikakikai Co., Ltd.) which was set at 35° C. and 25% RH. Moisture contents after being left for 24 hours were measured again (moisture content after test: B) to evaluate their water retention property by using the following formula for calculating the moisture reduction rates. After that, it was left to stand still until the moisture content remained unchanged, and determinations of the hydrate and the number of hydrated water were made based on the final moisture contents. • Moisture content before test: A (%) • Moisture content after test: B (%)

[3] = Appearance of formulation (state at 25° C.); format: physicochemical; settings: formulation at the compounding molar ratio listed
[4] = Hygroscopicity evaluation (moisture content); format: physicochemical; settings: for Hygroscopicity test Moisture content after test: dried in vacuum at 60° C. for 18 hours, then 1 month at room temperature, Karl Fischer; for Presence or absence of hydrates / n-hydrate: hygroscopicity test, Table 3
Experimental: The working examples 460 to 470 and the comparative example 6 in Table 3 were completely dried in a vacuum dryer at 60° C. for 18 hours, and then left to stand still at room temperature for 1 month whose moisture contents were then measured using a Karl Fischer moisture meter (CA-200 manufactured by Mitsubishi Chemical Analytech Co., Ltd.) to evaluate their hygroscopicity.

[5] = Component (A) amino acid; cited from earlier work
[6] = 25° C., components (A) and (B) at the compounding molar ratio shown
[7] = Tables 1C-1 to 1D, compounding molar ratio (Component (A):Component (B)) 1:1

Row | SMILES | state at 25° C. [1, 6] | Moisture eduction rate [2] [%] | Moisture content before test (A) [2] [%] | Presence or absence of hydrates [2] | state at 25° C. ([3]; Tables 2A/2B) | state at 25° C. [1, 7] | other results
1 | CCCCCC(=O)O.NCCCC[C@H](N)C(=O)O [Formulation 4] | Solid | 60.2 | 20.0 | Absent | Solid |  | 
2 | CCCCCCCC/C=C\CCCCCCCC(=O)O.NCCCC[C@H](N)C(=O)O [Formulation 7] | Solid |  |  |  |  |  | Hygroscopicity test Moisture content after test [4]: 2.1%; Presence or absence of hydrates [4]: Present; n-hydrate [4]: Multihydrate; state at 25° C. ([3]; Table 3): Solid
3 | NCCCC[C@H](N)C(=O)O.O=C(O)[C@H](O)[C@@H](O)[C@H](O)[C@H](O)CO [Formulation 9] | Liquid | 22.9 | 20.0 | Present | Liquid |  | state at 25° C. ([1]; 25° C., components (A) and (B) at the compounding molar ratio shown, listed as Working example 9): liquid; n-hydrate [2]: Dihydrate
4 | NCCCC[C@H](N)C(=O)O.O=C(O)[C@H](O)[C@@H](O)[C@H](O)[C@H](O)CO.O=C(O)[C@H](O)[C@@H](O)[C@H](O)[C@H](O)CO [Formulation 30] | Liquid | 42.7 | 20.0 | Present | Liquid |  | state at 25° C. ([1]; 25° C., components (A) and (B) at the compounding molar ratio shown, listed as Working example 30): liquid
5 | NCCCC[C@H](N)C(=O)O.NCCCC[C@H](N)C(=O)O.NCCCC[C@H](N)C(=O)O.O=C(O)CC(O)(CC(=O)O)C(=O)O.O=C(O)CC(O)(CC(=O)O)C(=O)O [Formulation 37] | Liquid | 22.4 | 20.0 | Present | Liquid |  | state at 25° C. ([1]; 25° C., components (A) and (B) at the compounding molar ratio shown, listed as Working example 37): liquid; n-hydrate [2]: Dihydrate
6 | N=C(N)NCCC[C@H](N)C(=O)O.O=C(O)[C@H](O)[C@@H](O)[C@H](O)[C@H](O)CO [Formulation 51] | Liquid | 23.7 | 20.0 | Present | Liquid |  | n-hydrate [2]: Mono-
7 | CC(O)C(=O)O.N=C(N)NCCC[C@H](N)C(=O)O [Formulation 52] | Liquid | 24.3 | 20.0 | Present | Liquid |  | n-hydrate [2]: Mono-
8 | N=C(N)NCCC[C@H](N)C(=O)O.O=C(O)CC(O)(CC(=O)O)C(=O)O [Formulation 58] | Liquid | 21.8 | 20.0 | Present | Liquid |  | 
9 | CCCCCCCC/C=C\CCCCCCCC(=O)O.CCCCCCCC/C=C\CCCCCCCC(=O)O.N=C(N)NCCC[C@H](N)C(=O)O [Formulation 70] | Liquid |  |  |  |  |  | Hygroscopicity test Moisture content after test [4]: 9.4%; Presence or absence of hydrates [4]: Present; n-hydrate [4]: Multihydrate; state at 25° C. ([3]; Table 3): Liquid
10 | N[C@@H](Cc1c[nH]cn1)C(=O)O.O=C(O)[C@H](O)[C@@H](O)[C@H](O)[C@H](O)CO [Formulation 93] | Liquid | 20.4 | 20.0 | Present | Liquid |  | state at 25° C. ([1]; 25° C., components (A) and (B) at the compounding molar ratio shown, listed as Working example 93): liquid
11 | NCC(=O)O.O=C(O)CC(O)(CC(=O)O)C(=O)O [Formulation 142] | Liquid | 32.2 | 20.0 | Present | Liquid |  | state at 25° C. ([1]; 25° C., components (A) and (B) at the compounding molar ratio shown, listed as Working example 142): liquid; n-hydrate [2]: Hemi-
12 | NCCCC(=O)O.O=C(O)[C@H](O)[C@@H](O)[C@H](O)[C@H](O)CO [Formulation 175] | Liquid | 36.7 | 20.0 | Present | Liquid |  | state at 25° C. ([1]; 25° C., components (A) and (B) at the compounding molar ratio shown, listed as Working example 175): liquid; n-hydrate [2]: Mono-
13 | N[C@@H](CO)C(=O)O.O=C(O)[C@H](O)[C@@H](O)[C@H](O)[C@H](O)CO [Formulation 243] | Liquid | 41.6 | 20.0 | Present | Liquid |  | state at 25° C. ([1]; 25° C., components (A) and (B) at the compounding molar ratio shown, listed as Working example 243): liquid; n-hydrate [2]: Mono-
14 | CC(=O)O.N[C@@H](CCC(=O)O)C(=O)O [Formulation 412] |  |  |  |  |  | Solid | 
15 | CCC(=O)O.N[C@@H](CCC(=O)O)C(=O)O [Formulation 413] |  |  |  |  |  | Solid | 
16 | CCCCCC(=O)O.N[C@@H](CCC(=O)O)C(=O)O [Formulation 414] |  |  |  |  |  | Solid | 
17 | CCCC(=O)O.N[C@@H](CCC(=O)O)C(=O)O [Formulation 415] |  |  |  |  |  | Solid | 
18 | N[C@@H](CCC(=O)O)C(=O)O.O=C(O)C(O)C(O)C(O)C(O)CO (stereo not drawn) [Formulation 416] |  |  |  |  |  | Solid | 
19 | CC(O)C(=O)O.N[C@@H](CCC(=O)O)C(=O)O [Formulation 417] |  |  |  |  |  | Solid | 

Row | SMILES | state at 25° C. [1, 6] | Moisture eduction rate [2] [%] | Moisture content before test (A) [2] [%] | Presence or absence of hydrates [2] | state at 25° C. ([3]; Tables 2A/2B) | state at 25° C. [1, 7] | other results
20 | N[C@@H](CCC(=O)O)C(=O)O.O=C(O)CCCCC(=O)O [Formulation 418] |  |  |  |  |  | Solid | 
21 | N[C@@H](CCC(=O)O)C(=O)O.O=C(O)CCC(=O)O [Formulation 419] |  |  |  |  |  | Solid | 
22 | N[C@@H](CCC(=O)O)C(=O)O.N[C@@H](CCC(=O)O)C(=O)O [Formulation 420] |  |  |  |  |  | Solid | 
23 | N[C@@H](CCC(=O)O)C(=O)O.O=C(O)/C=C/C(=O)O [Formulation 421] |  |  |  |  |  | Solid | 
24 | NC(CCC(=O)O)C(=O)O.O=C(O)CC(O)C(=O)O (stereo not drawn) [Formulation 422] |  |  |  |  |  | Solid | 
25 | N[C@@H](CCC(=O)O)C(=O)O.O=C(O)CC(O)(CC(=O)O)C(=O)O [Formulation 423] |  |  |  |  |  | Solid | 
26 | N[C@@H](CCC(=O)O)C(=O)O.O=C(O)C(O)C(O)C(=O)O [Formulation 424] |  |  |  |  |  | Solid | 
27 | N[C@@H](CCC(=O)O)C(=O)O.O=C(O)c1ccccc1 [Formulation 425] |  |  |  |  |  | Solid | 
28 | N[C@@H](CCC(=O)O)C(=O)O.O=C1O[C@H]([C@@H](O)CO)C(O)=C1O [Formulation 426] |  |  |  |  |  | Solid | 
29 | NC(CCC(=O)O)C(=O)O.O=C1OC(C(O)CO)C(O)=C1O (stereo not drawn) [Formulation 427] |  |  |  |  |  | Solid | 
30 | Cl.NCCCC[C@H](N)C(=O)O [Formulation 429] |  | 68.2 | 20.0 | Absent | Solid |  | 
31 | CCCCCCCC/C=C\CCCCCCCC(=O)[O-].[Na+] [Formulation 433, reference compound] |  |  |  |  |  |  | Hygroscopicity test Moisture content after test [4]: 0.0%; state at 25° C. ([3]; Table 3): Solid
32 | Cl.O=C(O)[C@@H]1CCCN1 [Formulation 437] |  |  |  |  |  |  | state at 25° C. ([1]; 25° C.): Solid
33 | O [Formulation 438] |  |  |  |  |  |  | state at 25° C. ([1]; 25° C.): Liquid
34 | N[C@@H](CS)C(=O)O [cysteine] |  |  |  |  |  |  | isoelectric points of amino acids (values in parentheses) [5]: (5.07)
35 | CSCC[C@H](N)C(=O)O [methionine] |  |  |  |  |  |  | isoelectric points of amino acids (values in parentheses) [5]: (5.74)
36 | N[C@@H](Cc1ccccc1)C(=O)O [phenylalanine] |  |  |  |  |  |  | isoelectric points of amino acids (values in parentheses) [5]: (5.48)
37 | O=C(O)[C@@H]1CCCN1 [proline] |  |  |  |  |  |  | isoelectric points of amino acids (values in parentheses) [5]: (6.30)
38 | N[C@@H](Cc1c[nH]c2ccccc12)C(=O)O [tryptophan] |  |  |  |  |  |  | isoelectric points of amino acids (values in parentheses) [5]: (5.89)
